Reference: ChEMBL document CHEMBL1123649, “Congener derivatives and conjugates of histamine: synthesis and tissue and receptor selectivity of the derivatives” (J Med Chem, 1987)

Assays:
[1] = molecular target: Histamine H1 receptor (Homo sapiens) (UniProt P35367); assay: Effect on peripheral vasculature of the rabbit as percentage change in contractility.; type: functional, tissue-based; conditions: Oryctolagus cuniculus, target entry is the homologue from another species
[2] = molecular target: Histamine H2 receptor (Cavia porcellus) (UniProt P47747); assay: Relative potency in guinea pig myocardium (GPM) by adenylate cyclase stimulation assay, H2 receptor response; type: functional, tissue-based
Sequence of Histamine H2 receptor (Cavia porcellus) (P47747 whole entry): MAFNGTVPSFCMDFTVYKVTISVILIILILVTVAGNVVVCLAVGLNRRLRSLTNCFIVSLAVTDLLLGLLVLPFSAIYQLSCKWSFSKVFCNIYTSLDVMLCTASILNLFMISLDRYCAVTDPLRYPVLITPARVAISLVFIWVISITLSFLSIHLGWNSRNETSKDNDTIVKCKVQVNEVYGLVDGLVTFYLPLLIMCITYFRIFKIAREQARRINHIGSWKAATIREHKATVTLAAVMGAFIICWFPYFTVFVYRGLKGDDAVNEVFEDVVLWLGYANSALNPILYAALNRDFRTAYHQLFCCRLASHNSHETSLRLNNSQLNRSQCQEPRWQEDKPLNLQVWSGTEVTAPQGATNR

[3] = molecular target: Histamine H2 receptor (Mus musculus) (UniProt P97292); assay: Relative potency by cAMP assay in natural suppressor cells.; type: functional, cell-based
Sequence of Histamine H2 receptor (Mus musculus) (P97292 whole entry): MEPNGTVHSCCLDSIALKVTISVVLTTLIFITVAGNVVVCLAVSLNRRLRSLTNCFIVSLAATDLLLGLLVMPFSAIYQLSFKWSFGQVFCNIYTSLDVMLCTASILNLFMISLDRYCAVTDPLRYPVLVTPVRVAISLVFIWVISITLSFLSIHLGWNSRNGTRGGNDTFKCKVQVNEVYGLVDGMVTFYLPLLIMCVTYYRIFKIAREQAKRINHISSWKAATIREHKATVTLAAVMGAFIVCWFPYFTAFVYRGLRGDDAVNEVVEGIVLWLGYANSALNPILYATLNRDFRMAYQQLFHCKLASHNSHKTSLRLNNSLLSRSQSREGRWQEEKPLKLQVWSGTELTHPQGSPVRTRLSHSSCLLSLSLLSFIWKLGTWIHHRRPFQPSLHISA

Sequence of Histamine H1 receptor (Homo sapiens) (P35367 whole entry): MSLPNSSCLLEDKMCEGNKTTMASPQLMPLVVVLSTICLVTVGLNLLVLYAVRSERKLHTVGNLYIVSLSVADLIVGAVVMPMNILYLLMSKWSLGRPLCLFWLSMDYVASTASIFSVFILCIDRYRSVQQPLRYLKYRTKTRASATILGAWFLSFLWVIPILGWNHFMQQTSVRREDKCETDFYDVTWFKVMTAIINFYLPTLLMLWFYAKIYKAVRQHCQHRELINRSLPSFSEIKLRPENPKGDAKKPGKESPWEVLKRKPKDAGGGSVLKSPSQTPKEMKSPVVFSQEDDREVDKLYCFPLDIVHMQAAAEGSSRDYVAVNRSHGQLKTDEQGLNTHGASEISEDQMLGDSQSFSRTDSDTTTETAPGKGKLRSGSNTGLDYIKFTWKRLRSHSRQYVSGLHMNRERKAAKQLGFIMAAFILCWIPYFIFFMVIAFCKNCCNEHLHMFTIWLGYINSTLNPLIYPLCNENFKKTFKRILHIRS

Change [1] [%] | Relative potency [2] | Relative potency [3] | SMILES
0 | – | 0 | CC(CCC(=O)Nc1ccc(C(F)(F)F)cc1)NCCc1c[nH]cn1 (stereo not given)
0 | 0 | 4.4 | Cc1ccc(NC(=O)CCCC(=O)NCCc2c[nH]cn2)cc1
0 | 0.02 | 2 | Cc1ccc(NC(=O)CCCCCC(C)NCCc2c[nH]cn2)cc1 (stereo not given)
0 | 0.07 | 3 | Cc1ccc(NC(=O)CCCCC(C)NCCc2c[nH]cn2)cc1 (stereo not given)
0 | – | 0 | Cc1ccc(NC(=O)CCC(C)NCCc2c[nH]cn2)cc1 (stereo not given)
– | 0 | 40000 | CC(CCCCC(=O)Nc1ccc(C(F)(F)F)cc1)NCCc1c[nH]cn1 (stereo not given)
90 | 0.01 | 4000 | Cc1ccc(NC(=O)CCCC(C)NCCc2c[nH]cn2)cc1 (stereo not given)
0 | 0 | 0 | CC(CCCC(=O)Nc1ccc(C(F)(F)F)cc1)NCCc1c[nH]cn1 (stereo not given)
0 | 0.09 | 2 | Cc1ccc(NC(=O)CCCCNCCc2c[nH]cn2)cc1

Further lines, the compound ahead of its results:

SMILES | Change [1] [%] | Relative potency [2] | Relative potency [3]
CC(CCCCC(=O)Nc1ccccc1C(F)(F)F)NCCc1c[nH]cn1 (stereo not given) | 0 | 0 | 0
NCCc1c[nH]cn1 | 284 | 1 | 1
CCCCCC(=O)NCCc1c[nH]cn1 | 0 | 0 | 0
CCCCCCNCCc1c[nH]cn1 | 93 | 0 | 5
CNC(=O)CNC(=O)C(Cc1ccccc1)N(NC(=O)CCC(C)NCCc1c[nH]cn1)C(=O)OC(C)(C)C (stereo not given) | 0 | 0 | 0
CCCCCC(C)NCCc1c[nH]cn1 (stereo not given) | 0 | 0 | 0
CC(CC(=O)Nc1ccc(C(F)(F)F)cc1)NCCc1c[nH]cn1 (stereo not given) | 0 | – | 0
CNC(=O)CNC(=O)C(Cc1ccccc1)N(NC(=O)CCCCC(C)NCCc1c[nH]cn1)C(=O)OC(C)(C)C (stereo not given) | 0 | 0.0007 | 0
CCCCNC(=O)CCCCC(C)NCCc1c[nH]cn1 (stereo not given) | 0 | 0.01 | 0
CNC(=O)CNC(=O)C(Cc1ccccc1)N(NC(=O)CCCC(C)NCCc1c[nH]cn1)C(=O)OC(C)(C)C (stereo not given) | 0 | 0 | 0
Cc1ccc(NC(=O)CC(C)NCCc2c[nH]cn2)cc1 (stereo not given) | 0 | – | 0
